Measured values: patent US20250215013A1, “SUBSTITUTED TRICYCLIC COMPOUNDS AS PARP INHIBITORS AND THE USE THEREOF” (IMPACT THERAPEUTICS (SHANGHAI), INC., priority 2022, published 2025)
Like-named read-outs stand apart in the source and are kept apart here.

Experiments:
[1] = biological target: recombinant poly(ADP-ribose) polymerase 2 (PARP2) (Homo sapiens, UniProt Q9UGN5); assay: PARP2 chemiluminescent assay; assay type: biochemical; conditions: inhibition of PARP2 enzyme activity, chemiluminescence
[2] = test system: MDA-MB-436 cells; assay: Growth inhibition assay against BRCA mutant human breast cancer MDA-MB-436 cell line (CCK-8); assay type: cell-based; conditions: Homo sapiens, MDA-MB-436, […], proliferation of MDA-MB-436 cells, 7 days
[3] = biological target: T1, recombinant poly(ADP-ribose) polymerase 1 (PARP1) (Homo sapiens (Human), UniProt P09874); assay: biochemical
[4] = biological target: recombinant poly(ADP-ribose) polymerase 2 (PARP2); assay: PARP2 chemiluminescent assay; assay type: biochemical; conditions: inhibition of PARP2 enzyme activity, chemiluminescence
[5] = biological target: PDE3A (Homo sapiens (Human), UniProt Q14432); assay: PDE3A fluorescence polarization (FP) assay; assay type: biochemical; conditions: PDE3A enzyme activity, FAM-cAMP substrate
Description: A PDE3A fluorescence polarization (FP) assay in a multi-step format was performed using black, round bottom 384-well plates (Corning, 4514). The testing compounds were serially diluted from stock solutions to 11 concentrations with a 3-fold dilution factor using DMSO. Fifty nl of compound dilutions was mixed with 5 μl of reaction buffer (10 mM Tris-HCl, pH 7.2, 10 mM MgCl2, 0.05% NaN3, 0.1% phosphate-free BSA) containing 0.2 μM FAM-cAMP (BPS, 60200) and 2 nM PDE3A (Sino Biological, 11908-H20B1) enzyme, and incubated for 60 min at 25° C. Afterwards, 15 μl binding agent mixture (Molecular Devices, R8124) was added to each well and the plate was incubated for 60 min at 25° C. The plate was loaded to a BMG PHERAstar FSX to read Fluorescence Polarization (FP) values at a setting of: Ex: 485 nm and Em: 520 nm. Emission light intensity with polarizers parallel (Emi) and emission light intensity with polarizers perpendicular (Emi) were recorded. The Polarization (mP) values were calculated using the following formula: mP=(SignalEml−SignalEm⊥)/(SignalEml+SignalEm⊥).
• 1) The inhibition % of a compound dose is calculated as:
[formula] • wherein mPMin and mPMax refer to the polarization readings in the condition of substrate only and substrate+enzyme, respectively. • 2) The IC50 values were calculated from non-linear curve fitting using following regression equation using a commercial curve fitting software GraphPad Prism 9.2.0.
[formula] • wherein, X refers to Log of compound concentration and Y refers to % Inhibition.

[6] = biological target: T1, recombinant poly(ADP-ribose) polymerase 1 (PARP1)

PDE3A, sequence (Q14432 whole entry): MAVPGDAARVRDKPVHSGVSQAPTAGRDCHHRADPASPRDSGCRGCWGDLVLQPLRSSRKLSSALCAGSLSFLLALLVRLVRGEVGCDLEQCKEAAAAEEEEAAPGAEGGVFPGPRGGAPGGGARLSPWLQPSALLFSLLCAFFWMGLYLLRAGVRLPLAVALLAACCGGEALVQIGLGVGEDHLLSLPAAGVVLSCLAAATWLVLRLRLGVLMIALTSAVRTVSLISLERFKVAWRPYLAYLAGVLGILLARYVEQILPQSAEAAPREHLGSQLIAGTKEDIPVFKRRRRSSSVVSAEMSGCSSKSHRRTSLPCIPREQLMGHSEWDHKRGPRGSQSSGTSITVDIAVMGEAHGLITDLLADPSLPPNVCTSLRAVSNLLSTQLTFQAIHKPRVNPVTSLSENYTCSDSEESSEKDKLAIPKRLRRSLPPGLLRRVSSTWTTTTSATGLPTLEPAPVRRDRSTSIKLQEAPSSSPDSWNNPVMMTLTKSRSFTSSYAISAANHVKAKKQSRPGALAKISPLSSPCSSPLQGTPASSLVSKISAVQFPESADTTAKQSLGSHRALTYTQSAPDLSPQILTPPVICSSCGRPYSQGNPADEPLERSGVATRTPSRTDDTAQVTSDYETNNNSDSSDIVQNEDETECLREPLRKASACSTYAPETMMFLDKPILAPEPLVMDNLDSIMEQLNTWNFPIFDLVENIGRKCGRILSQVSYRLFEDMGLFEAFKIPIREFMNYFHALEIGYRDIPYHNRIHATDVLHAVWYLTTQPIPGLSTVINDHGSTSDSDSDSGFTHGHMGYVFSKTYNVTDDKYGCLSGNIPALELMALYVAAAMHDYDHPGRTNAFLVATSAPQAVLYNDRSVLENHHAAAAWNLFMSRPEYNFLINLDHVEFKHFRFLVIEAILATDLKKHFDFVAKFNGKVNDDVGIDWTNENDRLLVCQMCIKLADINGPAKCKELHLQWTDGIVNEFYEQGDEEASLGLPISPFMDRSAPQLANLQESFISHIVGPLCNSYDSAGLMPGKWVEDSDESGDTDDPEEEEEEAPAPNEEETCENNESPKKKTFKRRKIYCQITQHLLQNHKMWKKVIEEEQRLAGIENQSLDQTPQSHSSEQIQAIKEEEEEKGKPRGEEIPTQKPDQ
T1 sequence (P09874 whole entry): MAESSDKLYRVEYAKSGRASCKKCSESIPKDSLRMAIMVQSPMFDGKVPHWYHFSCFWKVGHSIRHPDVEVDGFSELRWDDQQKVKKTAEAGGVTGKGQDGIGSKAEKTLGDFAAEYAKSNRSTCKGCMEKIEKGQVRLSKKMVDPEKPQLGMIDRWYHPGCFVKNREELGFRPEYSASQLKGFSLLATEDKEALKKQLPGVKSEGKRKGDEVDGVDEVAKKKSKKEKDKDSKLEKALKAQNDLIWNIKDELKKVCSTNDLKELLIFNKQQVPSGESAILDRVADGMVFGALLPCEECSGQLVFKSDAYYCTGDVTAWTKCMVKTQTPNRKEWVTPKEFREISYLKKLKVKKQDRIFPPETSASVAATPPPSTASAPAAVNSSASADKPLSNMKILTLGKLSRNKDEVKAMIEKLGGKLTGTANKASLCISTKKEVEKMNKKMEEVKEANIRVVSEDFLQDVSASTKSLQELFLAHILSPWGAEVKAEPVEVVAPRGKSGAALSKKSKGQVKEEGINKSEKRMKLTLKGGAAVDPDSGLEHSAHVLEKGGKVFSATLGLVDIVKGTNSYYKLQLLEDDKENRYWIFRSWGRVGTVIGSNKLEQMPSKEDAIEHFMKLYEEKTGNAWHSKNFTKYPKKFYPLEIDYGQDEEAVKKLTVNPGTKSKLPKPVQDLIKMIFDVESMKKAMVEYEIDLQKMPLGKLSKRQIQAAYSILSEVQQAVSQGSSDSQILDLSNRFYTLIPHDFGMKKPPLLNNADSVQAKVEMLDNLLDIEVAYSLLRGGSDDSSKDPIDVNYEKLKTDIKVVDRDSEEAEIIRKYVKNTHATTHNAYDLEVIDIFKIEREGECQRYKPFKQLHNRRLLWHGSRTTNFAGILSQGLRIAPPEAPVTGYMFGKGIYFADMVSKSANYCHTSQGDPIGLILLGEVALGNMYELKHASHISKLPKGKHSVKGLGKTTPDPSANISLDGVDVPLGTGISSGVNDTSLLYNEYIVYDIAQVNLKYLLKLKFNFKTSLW
recombinant poly(ADP-ribose) polymerase 2 (PARP2) (Homo sapiens, UniProt Q9UGN5), sequence (Q9UGN5 whole entry, looked up): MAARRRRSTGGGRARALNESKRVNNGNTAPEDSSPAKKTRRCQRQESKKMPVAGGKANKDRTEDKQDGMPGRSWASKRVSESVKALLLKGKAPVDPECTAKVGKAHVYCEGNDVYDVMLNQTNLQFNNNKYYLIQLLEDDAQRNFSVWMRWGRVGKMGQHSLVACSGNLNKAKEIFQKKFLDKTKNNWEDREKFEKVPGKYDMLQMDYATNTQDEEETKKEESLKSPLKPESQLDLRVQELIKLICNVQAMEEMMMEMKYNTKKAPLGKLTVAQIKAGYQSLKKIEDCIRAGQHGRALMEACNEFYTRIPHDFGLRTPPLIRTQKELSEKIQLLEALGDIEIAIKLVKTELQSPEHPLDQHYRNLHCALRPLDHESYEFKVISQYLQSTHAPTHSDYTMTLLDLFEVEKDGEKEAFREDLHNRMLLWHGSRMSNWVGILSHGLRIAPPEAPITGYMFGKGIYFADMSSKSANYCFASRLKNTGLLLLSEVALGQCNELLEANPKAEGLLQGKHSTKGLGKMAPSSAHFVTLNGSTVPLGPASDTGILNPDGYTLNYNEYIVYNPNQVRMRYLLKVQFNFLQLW

| SMILES | IC50 [1] | IC50 [2] | IC50 [3] | IC50 [4] | IC50 [5] | IC50 [6] |
| --- | --- | --- | --- | --- | --- | --- |
| CNC(=O)c1ccc(N2CCN(Cc3ccc4c(c3)[nH]c(=O)c3ccsc34)CC2)c(C)n1 [Example 1, 7-((4-(2-methyl-6-(methylcarbamoyl)pyridin-3-yl)piperazin-1-yl)methyl)thieno[3,2-c]quinolin-4(5H)-one] | 78 nM |  |  |  |  |  |
| CNC(=O)c1ccc(N2CCN(Cc3ccc4c(c3)[nH]c(=O)c3cscc34)CC2)c(C)n1 [Example 3, 7-((4-(2-methyl-6-(methylcarbamoyl)pyridin-3-yl)piperazin-1-yl)methyl)thieno[3,4-c]quinolin-4(5H)-one] | 18.3 nM |  |  |  |  |  |
| CNC(=O)c1ccc(N2CCN(Cc3ccc4c(c3)[nH]c(=O)c3sccc34)CC2)c(C)n1 [Example 5, 7-((4-(2-methyl-6-(methylcarbamoyl)pyridin-3-yl)piperazin-1-yl)methyl)thieno[2,3-c]quinolin-4(5H)-one] | 10.1 nM |  |  |  |  |  |
| CNC(=O)c1ccc(N2CCN(Cc3ccc4c(c3)[nH]c(=O)c3cnn(C)c34)CC2)c(C)n1 [Example 8, 7-((4-(2-methyl-6-(methylcarbamoyl)pyridin-3-yl)piperazin-1-yl)methyl)-1-methyl-1,5-dihydro-4H-pyrazolo[4,3-c]quinolin-4-one] | 54.9 nM |  |  |  |  |  |
| CNC(=O)c1ccc(N2CCN(Cc3cc(F)c4c(c3)[nH]c(=O)c3cscc34)CC2)c(C)n1 [Example 21, 7-((4-(2-methyl-6-(methylcarbamoyl)pyridin-3-yl)piperazin-1-yl)methyl)-9-fluorothieno[3,4-c]quinolin-4(5H)-one] | 13.3 nM |  |  |  |  |  |
| CNC(=O)c1ccc(N2CCN(Cc3cc(F)c4c(c3)[nH]c(=O)c3sccc34)CC2)c(C)n1 [Example 38, 9-fluoro-7-((4-(2-methyl-6-(methylcarbamoyl)pyridin-3-yl)piperazin-1-yl)methyl)thieno[2,3-c]quinolin-4(5H)-one] | 16.9 nM | 0.00373 µM |  |  |  |  |
| CNC(=O)c1ccc(C2CCN(Cc3ccc4c([nH]c(=O)c5occc54)c3F)CC2)c(F)n1 [Example 109, 7-((4-(2-fluoro-6-(methylcarbamoyl)pyridin-3-yl)piperidin-1-yl)methyl)-6-fluorofuro[2,3-c]quinolin-4(5H)-one] | 5370 nM | 0.00509 µM | 0.00083 µM |  |  |  |
| Cc1cnn2c1c(=O)[nH]c1c(F)c(CN3CCN(c4ccc(C(=O)NCC(F)F)nc4F)CC3)ccc12 [Example 129, 7-((4-(2-fluoro-6-(2,2-difluoroethylcarbamoyl)pyridin-3-yl)piperazin-1-yl)methyl)-6-fluoro-3-methylpyrazolo[1,5-a]quinoxalin-4(5H)-one] |  | 0.00502 µM |  | > 10000 nM | > 30 µM | 0.0005 µM |
| CNC(=O)c1ccc(N2CCN(Cc3ccc4c([nH]c(=O)c5c(C)cnn54)c3F)CC2)c(C(F)(F)F)n1 [Example 133, 7-((4-(2-trifluoromethyl-6-(methylcarbamoyl)pyridin-3-yl)piperazin-1-yl)methyl)-6-fluoro-3-methylpyrazolo[1,5-a]quinoxalin-4(5H)-one] |  | 0.023 µM |  | > 10000 nM | > 30 µM | 0.00057 µM |
| CNC(=O)c1ccc(N2CCN(Cc3ccc4c([nH]c(=O)n5cc(C)nc45)c3F)CC2)c(F)n1 [Example 140, 8-((4-(2-fluoro-6-(methylcarbamoyl)pyridin-3-yl)piperazin-1-yl)methyl)-2-methyl-7-fluoroimidazo[1,2-c]quinazolin-5(6H)-one] |  | 0.00224 µM |  | 1250 nM | 28.9 µM | 0.00084 µM |
| CNC(=O)c1ccc(N2CCN(Cc3ccc4c([nH]c(=O)n5c(C)cnc45)c3F)CC2)c(F)n1 [Example 141, 8-((4-(2-fluoro-6-(methylcarbamoyl)pyridin-3-yl)piperazin-1-yl)methyl)-3-methyl-7-fluoroimidazo[1,2-c]quinazolin-5(6H)-one] |  | 0.0246 µM |  | 1890 nM | > 25 µM | 0.00129 µM |
| CNC(=O)c1ccc(N2CCN(Cc3ccc4c(c3)[nH]c(=O)c3cocc34)CC2)c(F)n1 [Example 143, 7-((4-(2-fluoro-6-(methylcarbamoyl)pyridin-3-yl)piperazin-1-yl)methyl)furo[3,4-c]quinolin-4(5H)-one] |  | 0.0035 µM |  | 166 nM | 1.2 µM | 0.00046 µM |
| O=C(NCC(F)F)c1ccc(N2CCN(Cc3ccc4c([nH]c(=O)c5occc54)c3F)CC2)c(F)n1 [Example 147, 6-fluoro-7-((4-(2-fluoro-6-(2,2-difluoroethylcarbamoyl)pyridin-3-yl)piperazin-1-yl)methyl)furo[2,3-c]quinolin-4(5H)-one] | 2400 nM | 0.002 µM | 0.00056 µM |  | 10.9 µM |  |
| CNC(=O)c1ccc(C2=CCN(Cc3ccc4c([nH]c(=O)c5c(C)cnn54)c3F)CC2)cn1 [Example 152, 6-fluoro-3-methyl-7-((6-methylcarbamoyl-3′,6′-dihydro-[3,4′-bipyridin]-1′(2′H)-yl)methyl)pyrazolo[1,5-a]quinoxalin-4(5H)-one] | > 1110 nM | 0.0193 µM |  |  | > 25 µM |  |
| CNC(=O)c1ccc(C2=CCN(Cc3ccc4c([nH]c(=O)c5c(C)cnn54)c3F)CC2)c(F)n1 [Example 165, 6-fluoro-7-((2-fluoro-6-methylcarbamoyl-3′,6′-dihydro-[3,4′-bipyridin]-1′(2′H)-yl)methyl)-3-methylpyrazolo[1,5-a]quinoxalin-4(5H)-one] | > 3330 nM | 0.00275 µM |  |  |  | 0.00026 µM |
| CNC(=O)c1ccc(N2CCN(Cc3cc4[nH]c(=O)c5c(C)cnn5c4cc3F)CC2)c(F)n1 [Example 168, 8-fluoro-7-((4-(2-fluoro-6-(methylcarbamoyl)pyridin-3-yl)piperazin-1-yl)methyl)-3-methylpyrazolo[1,5-a]quinoxalin-4(5H)-one] |  | 0.00802 µM |  | 145 nM | > 30 µM | 0.00061 µM |
| CNC(=O)c1ccc(N2CCN(Cc3cc(F)c4c(c3)[nH]c(=O)c3c(F)cnn34)CC2)c(F)n1 [Example 177, 3,9-difluoro-7-((4-(2-fluoro-6-(methylcarbamoyl)pyridin-3-yl)piperazin-1-yl)methyl)pyrazolo[1,5-a]quinoxalin-4(5H)-one] |  | 0.00158 µM |  | 93.5 nM | 0.63 µM | 0.00032 µM |
| CNC(=O)c1ccc(N2CCN(Cc3ccc4c([nH]c(=O)c5c(C(F)(F)F)cnn54)c3F)CC2)c(F)n1 [Example 179, 7-((4-(2-fluoro-6-(methylcarbamoyl)pyridin-3-yl)piperazin-1-yl)methyl)-3-trifluoromethyl-6-fluoropyrazolo[1,5-a]quinoxalin-4(5H)-one] |  | 0.00449 µM |  | 67.1 nM | > 30 µM | 0.0005 µM |
| CCNC(=O)c1ccc(N2CCN(Cc3ccc4c([nH]c(=O)c5c(F)cnn54)c3F)CC2)c(F)n1 [Example 180, 7-((4-(2-fluoro-6-(ethylcarbamoyl)pyridin-3-yl)piperazin-1-yl)methyl)-3,6-difluoropyrazolo[1,5-a]quinoxalin-4(5H)-one] |  | 0.00124 µM |  | 431 nM | > 30 µM | 0.00024 µM |
| O=C(NC1CC1)c1ccc(N2CCN(Cc3ccc4c([nH]c(=O)c5c(F)cnn54)c3F)CC2)c(F)n1 [Example 181, 7-((4-(2-fluoro-6-(cyclopropylcarbamoyl)pyridin-3-yl)piperazin-1-yl)methyl)-3,6-difluoropyrazolo[1,5-a]quinoxalin-4(5H)-one] |  | 0.0019 µM |  | 315 nM | > 30 µM | 0.00023 µM |
| CNC(=O)c1ccc(N2CCN(Cc3cc4[nH]c(=O)c5c(F)cnn5c4cc3F)CC2)c(F)n1 [Example 182, 7-((4-(2-fluoro-6-(methylcarbamoyl)pyridin-3-yl)piperazin-1-yl)methyl)-3,8-difluoropyrazolo[1,5-a]quinoxalin-4(5H)-one] |  | 0.0014 µM |  | 93.5 nM | > 30 µM | 0.00032 µM |
| CNC(=O)c1ccc(N2CCN(Cc3cc4[nH]c(=O)c5c(F)cnn5c4cc3F)CC2)c(C)n1 [Example 183, 7-((4-(2-methyl-6-(methylcarbamoyl)pyridin-3-yl)piperazin-1-yl)methyl)-3,8-difluoropyrazolo[1,5-a]quinoxalin-4(5H)-one] |  | 0.00176 µM |  | 1390 nM | 1.59 µM | 0.00028 µM |
| CNC(=O)c1ccc(C2=CCN(Cc3ccc4c([nH]c(=O)c5c(F)cnn54)c3F)CC2)c(F)n1 [Example 197, 7-((2-fluoro-6-methylcarbamoyl-3′,6′-dihydro-[3,4′-bipyridin]-1′(2′H)-yl)methyl)-3,6-difluoropyrazolo[1,5-a]quinoxalin-4(5H)-one] | 774 nM | 0.00119 µM |  |  |  | 0.00015 µM |
